Laboratory results reported in the supplement of paper PMC10307832.

Tests used:
Assay in all cases: relative viability (nuclei count vs DMSO), 5 days (fraction); higher = more cells survive
[1] = compound: C(C(=O)C(=O)O)Br [Bromopyruvate] + O=C(c1cc(Cc2n[nH]c(=O)c3ccccc23)ccc1F)N1CCN(C(=O)C2CC2)CC1 [Olaparib] (partner 8 µM)
Outline: (§1)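 Relative viability divides the nuclei count in treated wells by that in vehicle wells. Lung cancer cell lines were seeded in 1536-well plates, dosed by pin tool the next day, and fixed and stained after 5 days in one step with final 0.05% Triton X-100, 1% formaldehyde and 1 ug/ml Hoechst. Dosing was a single drug or a fixed anchor-drug dose plus five library-drug doses (not always all listed) in √10 steps, and values are medians of duplicate plates imaged at 4×.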

[2] = compound: CC(O)(CS(=O)(=O)c1ccc(F)cc1)C(=O)Nc1ccc(C#N)c(C(F)(F)F)c1 [Bicalutamide] + O=C(CCCCCCC(=O)Nc1ccccc1)NO [Vorinostat] (partner 1 µM)
Outline: as §1

[3] = compound: C(C(=O)C(=O)O)Br [Bromopyruvate] + Nc1nc2[nH]cc(CCc3ccc(C(=O)N[C@@H](CCC(=O)O)C(=O)O)cc3)c2c(=O)[nH]1 [Pemetrexed] (partner 0.2 µM)
Outline: as §1

[4] = compound: CC(O)(CS(=O)(=O)c1ccc(F)cc1)C(=O)Nc1ccc(C#N)c(C(F)(F)F)c1 [Bicalutamide] + CS(=O)(=O)N1CCN(Cc2cc3nc(-c4cccc5[nH]ncc45)nc(N4CCOCC4)c3s2)CC1 [Pictilisib] (partner 1 µM)
Outline: as §1

Cell Line	relative viability ([1]; first compound 1 µM)	relative viability ([1]; first compound 3.162 µM)	relative viability ([1]; first compound 10 µM)	relative viability ([1]; first compound 31.62 µM)	relative viability ([1]; first compound 100 µM)	relative viability ([2]; first compound 0.08 µM)	relative viability ([2]; first compound 0.253 µM)	relative viability ([2]; first compound 0.8 µM)	relative viability ([2]; first compound 2.53 µM)	relative viability ([3]; first compound 1 µM)	relative viability ([3]; first compound 3.162 µM)	relative viability ([3]; first compound 10 µM)	relative viability ([3]; first compound 31.62 µM)	relative viability ([3]; first compound 100 µM)	relative viability ([4]; first compound 0.08 µM)	relative viability ([4]; first compound 0.253 µM)	relative viability ([4]; first compound 0.8 µM)	relative viability ([4]; first compound 2.53 µM)
201T	0.862	0.824	0.86	0.84	0.88	1.11	0.957	1.05	0.977	0.327	0.345	0.323	0.357	0.297	0.685	0.658	0.742	0.674
A549	–	0.286	0.403	0.356	0.3	–	–	–	–	–	–	–	–	–	0.546	0.483	0.617	0.357
A-427	0.664	0.758	0.782	0.693	0.774	0.883	0.9	0.866	0.842	1.05	0.975	1.05	0.863	1.07	0.676	0.812	0.867	0.628
ABC-1	0.775	–	–	–	0.566	1.06	0.805	1.5	0.947	–	–	–	–	–	0.812	0.731	1.06	0.758
BEN	0.96	0.994	1.46	1.03	0.99	0.537	0.719	0.588	0.617	0.87	0.656	0.833	0.62	0.753	0.589	0.472	0.713	0.632
CAL-12T	0.654	0.661	0.697	0.725	0.65	0.945	0.607	0.915	0.623	1.26	1.05	1.25	1.1	1.05	0.394	0.415	0.454	0.345
COR-L23	0.398	0.342	0.349	0.319	0.129	0.443	0.486	0.411	0.267	0.184	0.194	0.195	0.183	0.202	0.896	0.724	0.945	0.765
COR-L 105	0.771	0.71	0.642	0.504	0.429	0.983	0.712	0.944	0.717	1.25	1.19	1.1	1	0.532	0.372	0.324	0.394	0.303
Calu-6	0.579	0.581	0.686	0.55	0.417	–	–	–	–	–	–	–	–	–	1.06	0.87	1.04	0.839
ChaGo-K-1	0.417	0.466	0.431	0.344	0.301	0.763	0.691	0.887	0.772	0.266	0.254	0.261	0.27	0.259	0.818	0.606	0.892	0.523
EBC-1	0.691	0.594	0.741	0.617	0.564	–	–	–	–	–	–	–	–	–	0.41	0.362	0.378	0.23
EKVX	0.73	0.87	0.843	0.861	0.874	0.814	0.656	0.711	0.713	0.396	0.424	0.376	0.372	0.438	0.456	0.366	0.434	0.455
EMC-BAC-2	0.499	0.481	0.408	0.516	0.458	0.5	0.434	0.833	0.289	0.422	0.45	0.451	0.479	0.453	0.517	0.531	0.527	0.456
EPLC-272H	0.783	0.885	0.971	0.932	0.699	0.437	0.401	0.573	0.479	0.367	0.259	0.334	0.251	0.432	0.311	0.266	0.329	0.33
H3255	0.579	0.591	0.558	0.563	0.571	0.808	0.755	0.969	0.69	0.558	0.535	0.573	0.536	0.597	0.521	0.376	0.48	0.462
HARA	0.836	1.45	–	0.632	0.738	0.469	0.477	0.586	0.517	0.275	0.232	–	0.219	0.271	0.462	0.413	0.566	0.316
HCC-15	0.745	0.735	0.697	0.734	0.699	0.746	0.761	0.954	0.899	0.241	0.231	0.227	0.229	0.234	0.714	0.699	0.951	0.77
HCC-44	0.939	0.932	0.969	0.938	0.972	1.12	1.21	1.1	1.12	0.621	0.591	0.555	0.616	0.638	0.702	0.534	0.727	0.479
HCC-78	0.762	0.811	0.944	0.776	0.848	0.489	0.436	0.462	0.447	0.938	0.92	0.95	0.895	0.95	0.202	0.179	0.208	0.169
HCC-366	0.365	0.323	0.345	0.321	0.284	0.368	0.331	0.52	0.134	0.17	0.174	0.146	0.203	0.2	0.124	0.101	0.147	0.0426
